24 compounds from patent US20090239845A1, “PYRAZOLE COMPOUNDS AS PROSTAGLANDIN RECEPTORS LIGANDS” (priority 2005, published 2009) can be followed below.

The target in assay [1] is T1, human prostanoid EP1 receptor (Homo sapiens, UniProt P34995).
T1 construct: expressed in transfected cells; host or cells: CHO-K1 (membrane fraction)
T1 sequence (P34995 1-402): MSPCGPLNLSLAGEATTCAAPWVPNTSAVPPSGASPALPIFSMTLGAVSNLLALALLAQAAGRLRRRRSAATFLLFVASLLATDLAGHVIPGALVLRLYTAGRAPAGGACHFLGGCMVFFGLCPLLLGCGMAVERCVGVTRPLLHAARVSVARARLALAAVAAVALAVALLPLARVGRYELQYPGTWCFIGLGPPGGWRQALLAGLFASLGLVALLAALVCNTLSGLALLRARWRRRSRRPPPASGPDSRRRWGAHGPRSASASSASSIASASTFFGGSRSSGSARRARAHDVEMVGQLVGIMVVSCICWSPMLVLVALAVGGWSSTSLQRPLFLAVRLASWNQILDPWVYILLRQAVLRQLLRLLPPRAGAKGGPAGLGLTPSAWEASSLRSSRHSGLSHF
Put plainly: Binding assay for the human prostanoid EP1 receptor (competition with [3H]-PGE2). The note with it: negative logarithm10 of the IC50; competition with [3H]-PGE2, CHO-K1 cell membranes; averages of a number of experiments; read-out: pIC50 value (converted). The protocol: Competition assay using [^3H]-PGE2.
Compound potencies are determined using a radioligand binding assay. In this assay compound potencies are determined from their ability to compete with tritiated prostaglandin E2 ([^3H]-PGE2) for binding to the human EP1 receptor.
This assay utilises Chinese hamster ovary-K1 (CHO-K1) cells into which a stable vector containing the EP1 cDNA has previously been transfected. Cells are cultured in suitable flasks containing culture medium such as DMEM:F-12 supplemented with 10% v/v foetal calf serum, 2 mM L-glutamine, 0.25 mg/ml geneticin, 10 μg/ml puromycin and 10 μM indomethacin.
Cells are detached from the culture flasks by incubation in calcium and magnesium free phosphate buffered saline containing 1 mM disodium ethylenediaminetetraacetic acid (Na2EDTA) and 10 μM indomethacin for 5 min. The cells are isolated by centrifugation at 250×g for 5mins and suspended in an ice cold buffer such as 50 mM Tris, 1 mM Na2EDTA, 140 mM NaCl, 10 μM indomethacin (pH 7.4). The cells are homogenised using a Polytron tissue disrupter (2×10s burst at full setting), centrifuged at 48,000×g for 20mins and the pellet containing the membrane fraction is washed (optional) three times by suspension and centrifugation at 48,000×g for 20mins. The final membrane pellet is suspended in an assay buffer such as 10 mM 2-[N-morpholino]ethanesulphonic acid, 1 mM Na2EDTA, 10 mM MgCl2 (pH 6). Aliquots are frozen at −80° C. until required.
For the binding assay the cell membranes, competing compounds and [^3H]-PGE2 (3 nM final assay concentration) are incubated in a final volume of 100 μl for 30 min at 30° C. All reagents are prepared in assay buffer. Reactions are terminated by rapid vacuum filtration over GF/B filters using a Brandell cell harvester. The filters are washed with ice cold assay buffer, dried and the radioactivity retained on the filters is measured by liquid scintillation counting in Packard TopCount scintillation counter.
The data are analysed using non linear curve fitting techniques to determine the concentration of compound producing 50% inhibition of specific binding (IC50).

For another assay, the target named is T2, human EP1 receptor (Homo sapiens, UniProt P34995).
T2 construct: expressed in transfected cells; host or cells: CHO-K1
T2 sequence (P34995 1-402): T1 sequence (P34995 1-402)
As to the kind of experiment: human EP1 calcium mobilisation assay. Type of assay: cell-based. The note with it: negative logarithm10 of the antagonist dissociation constant; CHO-K1 cells, PGE2; free bases or sodium salts; averages of a number of experiments; read-out: functional pKi value (converted).

Structures can show the parent of a compound that is named as a salt.

As to `Cc1cc(C(=O)Nc2ccc(CN3CCCCC3)cc2)nn1Cc1cc(Cl)ccc1OCC(C)C` [Example 397, 1-({5-Chloro-2-[(2-methylpropyl)oxy]phenyl}methyl)-5-methyl-N-[4-(1-piperidinylmethyl)phenyl]-1H-pyrazole-3-carboxamide hydrochloride], the IC50 in assay [1] was not above 10 nM.
The same measure, in the same setting: in the case of `Cc1cc(NC(=O)CC(C)(C)C)nn1Cc1cc(Cl)ccc1OCc1ccccc1` [Example 109, N-[1-({5-Chloro-2-[(phenylmethyl)oxy]phenyl}methyl)-5-methyl-1H-pyrazol-3-yl]-3,3-dimethylbutanamide] it was not above 10 nM.
Same read-out and setting: then `Cc1cc(NC(=O)CC(C)C)nn1Cc1cc(Cl)ccc1OCC(C)C` [Example 76, N-[1-({5-Chloro-2-[(2-methylpropyl)oxy]phenyl}methyl)-5-methyl-1H-pyrazol-3-yl]-3-methylbutanamide], with not above 10 nM; and `Cc1cc(NC(=O)Cc2ccccn2)nn1Cc1cc(Cl)ccc1OCc1ccc(Cl)cc1F` [Example 118, N-{1-[(5-Chloro-2-{[(4-chloro-2-fluorophenyl)methyl]oxy}phenyl)methyl]-5-methyl-1H-pyrazol-3-yl}-2-(2-pyridinyl)acetamide], with not above 10 nM; and `Cc1cc(C(=O)Nc2ccc(CN(C)C)cc2)nn1Cc1cc(Cl)ccc1OCc1ccccc1` [Example 346, 1-({5-Chloro-2-[(phenylmethyl)oxy]phenyl}methyl)-N-{4-[(dimethylamino)methyl]phe-nyl}-5-methyl-1H-pyrazole-3-carboxamide hydrochloride], with not above 10 nM.
Consider `Cc1cc(-c2nc3cc(CO)ccc3[nH]2)nn1Cc1cc(Cl)ccc1OCC(C)C` [Example 377, {2-[1-({5-Chloro-2-[(2-methylpropyl)oxy]phenyl}methyl)-5-methyl-1H-pyrazol-3-yl]-1H-benzimidazol-5-yl}methanol hydrochloride], for which the IC50 in assay [1] was not above 10 nM.
Same read-out and setting: then `Cc1cc(C(=O)Nc2ccc(CN3CCOCC3)cc2)nn1Cc1cc(Cl)ccc1OCC(C)C` [Example 398, 1-({5-Chloro-2-[(2-methylpropyl)oxy]phenyl}methyl)-5-methyl-N-[4-(4-morpholinylmethyl)phenyl]-1H-pyrazole-3-carboxamide hydrochloride], with not above 10 nM.
With `Cc1cc(-c2nnn[nH]2)nn1Cc1cc(Cl)ccc1OCc1ccccc1` [Example 353, 5-[1-({5-Chloro-2-[(phenylmethyl)oxy]phenyl}methyl)-5-methyl-1H-pyrazol-3-yl]-1H-tetrazole], the IC50 in assay [1] was not above 10 nM.
The same measure, in the same setting: in the case of `Cc1cc(NC(=O)OC(C)C)nn1Cc1cc(Br)ccc1OCc1ccc(F)cc1F` [Example 7, 1-Methylethyl {1-[(5-bromo-2-{[(2,4-difluorophenyl)methyl]oxy}phenyl)methyl]-5-methyl-1H-pyrazol-3-yl}carbamate] it was not above 10 nM.
On to `Cc1cc(NC(=O)OC(C)C)nn1Cc1cc(Br)ccc1OCc1ccc(Cl)cc1Cl` [Example 9, 1-Methylethyl {1-[(5-bromo-2-{[(2,4-dichlorophenyl)methyl]oxy}phenyl)methyl]-5-methyl-1H-pyrazol-3-yl]carbamate], for which the IC50 in assay [1] is not above 10 nM. Besides, the Ki on human EP1 receptor was more than 1000 nM.
As to `CCN1CCN(Cc2ccc3[nH]c(-c4cnn(Cc5cc(Cl)ccc5OCC(C)C)c4C)nc3c2)CC1` [Example 382, 2-[1-({5-Chloro-2-[(2-methylpropyl)oxy]phenyl}meth-yl)-5-methyl-1H-pyrazol-4-yl]-5-[(4-ethyl-1-piperazinyl)methyl]-1H-benzimidazole trihydrochloride], in assay [1], the IC50 is not above 10 nM.
The same measure, in the same setting: in the case of `Cc1cc(NC(=O)CC2CCCCC2)nn1Cc1cc(Cl)ccc1OCc1ccccc1` [Example 154, N-[1-({5-Chloro-2-[(phenylmethyl)oxy]phenyl}methyl)-5-methyl-1H-pyrazol-3-yl]-2-cyclohexylacetamide] it was not above 10 nM; in that of `Cc1cc(-c2nc3ccc(N(C)C)cc3[nH]2)nn1Cc1cc(Cl)ccc1OCC(C)C` [Example 473, 2-[1-({5-Chloro-2-[(2-methylpropyl)oxy]phenyl}methyl)-5-methyl-1H-pyrazol-3-yl]-N,N-dimethyl-1H-benzimidazol-5-amine dihydrochloride], not above 10 nM; in that of `Cc1c(-c2nc3cc(CN4CCN(C)CC4)ccc3[nH]2)cnn1Cc1cc(Cl)ccc1OCC(C)C` [Example 381, 2-[1-({5-Chloro-2-[(2-methylpropyl)oxy]phenyl}meth-yl)-5-methyl-1H-pyrazol-4-yl]-5-[(4-methyl-1-piperazinyl)methyl]-1H-benzimidazole trihydrochloride], not above 10 nM.
The same measure, in the same setting: in the case of `Cc1cc(NC(=O)c2cccc3ccccc23)nn1Cc1cc(Cl)ccc1OCc1ccccc1` [Example 160, N-[1-({5-Chloro-2-[(phenylmethyl)oxy]phenyl}methyl)-5-methyl-1H-pyrazol-3-yl]-1-naphthalenecarboxamide] it was not above 10 nM; in that of `CNCc1ccc(NC(=O)c2cc(C)n(Cc3cc(Cl)ccc3OCC(C)C)n2)cc1` [Example 392, 1-({5-Chloro-2-[(2-methylpropyl)oxy]phenyl}methyl)-5-methyl-N-{4-[(methylamino)methyl]phenyl}-1H-pyrazole-3-carboxamide hydrochloride], not above 10 nM; in that of `Cc1cc(NC(=O)CC(C)(C)C)nn1Cc1cc(Cl)ccc1OCc1ccc(Cl)cc1` [Example 137, N-{1-[(5-Chloro-2-{[(4-chlorophenyl)methyl]oxy}phenyl)methyl]-5-methyl-1H-pyraozl-3-yl}-3,3-dimethylbutanamide], not above 10 nM.
`Cc1cc(C(=O)Nc2ccc(CN(C)C)cc2)nn1Cc1cc(Cl)ccc1OCC(C)C` [Example 394, 1-({5-Chloro-2-[(2-methylpropyl)oxy]phenyl}methyl)-N-{4-[(dimethylamino)methyl]phenyl}-5-methyl-1H-pyrazole-3-carboxamide hydrochloride]: the IC50 in assay [1] was not above 10 nM.
As to `Cc1cc(C(=O)Nc2c(F)cccc2F)nn1Cc1cc(Br)ccc1OCc1ccc(F)cc1F` [Example 319, 1-[(5-Bromo-2-{[(2,4-difluorophenyl)methyl]oxy}phenyl)methyl]-N-(2,6-difluorophenyl)-5-methyl-1H-pyrazole-3-carboxamide], the IC50 in assay [1] is not above 10 nM.
For the compound `Cc1cc(NC(=O)Cc2ccccc2)nn1Cc1cc(Cl)ccc1OCc1cc(F)c(F)cc1F` [Example 126, N-{1-[(5-Chloro-2-{[(2,4,5-trifluorophenyl)methyl]oxy}phenyl)methyl]-5-methyl-1H-pyrazol-3-yl}-2-phenylacetamide], the IC50 in assay [1] was not above 10 nM. Moreover, the Ki on human EP1 receptor was more than 1000 nM.
With `Cc1cc(-c2nc3ncccc3[nH]2)nn1Cc1cc(Cl)ccc1OCC(C)C` [Example 372, 2-[1-({5-Chloro-2-[(2-methylpropyl)oxy]phenyl}methyl)-5-methyl-1H-pyrazol-3-yl]-1H-imidazo[4,5-b]pyridine hydrochloride], the IC50 in assay [1] is not above 10 nM.
Same read-out and setting: in the case of `Cc1cc(NC(=O)OC(C)(C)C)nn1Cc1cc(Br)ccc1OCc1ccc(Cl)cc1Cl` [Example 8, 1,1-Dimethylethyl {1-[(5-bromo-2-{[(2,4-dichlorophenyl)methyl]oxy}phenyl)methyl]-5-methyl-1H-pyrazol-3-yl}carbamate] it was not above 10 nM.
For `Cc1cc(NC(=O)OC(C)(C)C)nn1Cc1cc(Br)ccc1OCc1ccc(F)cc1F` [Example 6, 1,1-Dimethylethyl {1-[(5-bromo-2-{[(2,4-difluorophenyl)methyl]oxy}phenyl)methyl]-5-methyl-1H-pyrazol-3-yl}carbamate], in assay [1], the IC50 is not above 10 nM. Further, the Ki on human EP1 receptor was more than 1000 nM.
Regarding `Cc1cc(-c2nc3ccncc3[nH]2)nn1Cc1cc(Cl)ccc1OCC(C)C` [Example 373, 2-[1-({5-Chloro-2-[(2-methylpropyl)oxy]phenyl}methyl)-5-methyl-1H-pyrazol-3-yl]-1H-imidazo[4,5-c]pyridine hydrochloride], the IC50 in assay [1] was not above 10 nM.
